Laboratory results as given in patent US10716765B2, “Delivery of functional compounds” (Intercontinental Great Brands LLC, priority 2009, dated 2020).

Tests used:
[1] = versus linalool and thymol, FIG. 3; cited from earlier work
[2] = In vitro digestion model simulating stomach and small intestine conditions; type: in vitro ADME
Text: This example compares the release of the non-esterified functional ingredient to the esterified functional ingredient during a simulated gastrointestinal study using an in vitro digestion model.
In addition, the partition coefficients for the ester compounds are greater than the parent compounds. These factors indicate that the ester compounds have a greater affinity for the hydrophobic carrier and insoluble matrix material than the parent compounds. […] The reduced rate is most evident when comparing linalool and thymol release from FIG. 4 to linalyl acetate and thymyl acetate release from FIG. 5. This improvement in stability within the model stomach implies increased stability in other low pH systems, such as acidic beverages, and further illustrates the importance of the esters for successful microencapsulation and enteric release of the functional ingredients.
As evident in FIGS. 4 and 5, the gastric release rate was reduced, as well as the release rate from 0-24.5 h, representative of the residence time in the small intestine. FIGS. 6 and 7 show the release rates of two esters of linalool, linalyl acetate in FIG. 6 and linalyl butyrate in FIG. 7 within a digestion model simulating stomach and small intestine conditions and residence times. In addition, the levels of the parent compounds present in the digestion model over time were measured. […]

[3] = Evaluation of emulsifiers in oil-in-water emulsion of essential oil blend; type: physicochemical; settings: compared with other emulsifiers
Text: Various emulsifiers were combined with deionized water at 60 C to produce 2% solutions. The resulting solutions were combined with an essential oil blend composition (4% alpha-pinene, 30% para-cymene, 7% linalool, and 35% thymol and 24% soybean oil) in a 50:50 weight ratio with deionized water to create an oil-in-water emulsion. The emulsifiers evaluated were Glycosperse S-20 KFG (Lonza; Fairlawn, N.J.), Polyaldo 10-1-O KFG (Lonza; Fairlawn, N.J.), Aldosperse MS-20 KFG (Lonza; Fairlawn, N.J.), Polyaldo 10-2-P KFG (Lonza; Fairlawn, N.J.), Ryoto sugar ester (S-1570, Mitsubishi-Kagaku Food Corp.; Tokyo, Japan), Precept 8120 (Central Soya; Fort Wayne, Ind.) and sodium caseinate (Alanate-180, New Zealand Dairy Board; Wellington, New Zealand).

| Compound | partition coefficient compared with parent compounds [1] | solubility in water compared with parent compounds [1] | hydrolysis of the ester to linalool [2] | oil droplets within the emulsion ([3]; 2% emulsifier solution, 50:50 with essential oil blend) | emulsion stability ([3]; after 24 hours storage at room temperature) |
| --- | --- | --- | --- | --- | --- |
| C=CC(C)(CCC=C(C)C)OC(=O)CCC (stereo not shown) [linalyl butyrate] | greater | significantly lower | about 5% | – | – |
| sucrose stearate [Example S-1570] | – | – | – | smallest and most uniformly dispersed oil droplets | greatest stability |
| C=CC(C)(CCC=C(C)C)OC(C)=O (stereo not shown) [linalyl acetate] | greater | significantly lower | about 33% | – | – |
| CC(=O)Oc1cc(C)ccc1C(C)C [thymyl acetate] | greater | significantly lower | – | – | – |
